Our source for the IC50 values is patent publication US20030229053A1, “Compounds and methods for the treatment or prevention of flavivirus infections” (Shire BioChem Inc., priority 2001, published 2003).

Each structure is given as a SMILES string.

Chain of recombinant HCV NS5B (P26663 2420-3010 limits assumed): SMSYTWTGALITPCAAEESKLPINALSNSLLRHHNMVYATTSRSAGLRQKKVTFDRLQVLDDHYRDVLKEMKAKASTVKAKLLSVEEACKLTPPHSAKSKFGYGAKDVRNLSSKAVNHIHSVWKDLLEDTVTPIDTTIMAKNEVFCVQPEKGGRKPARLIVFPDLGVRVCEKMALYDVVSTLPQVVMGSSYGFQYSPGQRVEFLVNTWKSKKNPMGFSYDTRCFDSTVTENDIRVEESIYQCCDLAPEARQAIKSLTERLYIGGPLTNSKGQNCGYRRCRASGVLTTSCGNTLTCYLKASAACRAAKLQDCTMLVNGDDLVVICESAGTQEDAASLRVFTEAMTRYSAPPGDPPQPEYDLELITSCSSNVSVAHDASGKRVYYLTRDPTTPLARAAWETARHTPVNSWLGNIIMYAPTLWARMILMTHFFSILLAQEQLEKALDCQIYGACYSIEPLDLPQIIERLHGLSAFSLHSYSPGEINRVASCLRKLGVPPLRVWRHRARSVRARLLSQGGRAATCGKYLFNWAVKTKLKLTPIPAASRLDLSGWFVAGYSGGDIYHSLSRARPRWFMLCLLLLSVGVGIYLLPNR
Chain of HCV NS5B RNA-dependent RNA polymerase (P26663 2420-3010 limits assumed): as above

The target in one experiment is HCV NS5B RNA-dependent RNA polymerase (Hepatitis C virus genotype 1b, UniProt P26663). Description: In vitro RNA-dependent RNA polymerase assay (Assay 1), polyA/oligo dT, TCA precipitation. It is filed as biochemical. The note with it: polyA/oligo dT template/primer, 200 ng NS5B, 2 h at 22° C.; read-out: RNA pol Assay 1 IC50 (μm). In a few lines:
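Purified NS5B (200 ng) on annealed polyA/oligo dT15 in 20 mM Tris-HCl pH 7.5, 50 mM NaCl, 5 mM MgCl2, 1 mM DTT, 15 µM cold UTP plus [32P]-UTP, 2 h at 22°C. Product TCA-precipitated, filtered onto glass-fibre and counted by liquid scintillation.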
Regarding `O=C(O)[C@H](Cc1ccccc1)N(Cc1ccc(-c2cccc(Cl)c2)o1)C(=O)c1ccc(Cl)cc1Cl` [compound #123, (2s)-2-[[5-(3-Chloro-phenyl)-furan-2-ylmethyl]-(2,4-dichloro-benzoyl)-amino]-3-phenyl-propionic acid], the IC50 was below 5 µM.

Consider `O=C(O)[C@H](Cc1ccccc1)N(Cc1sc(Br)cc1Br)C(=O)c1ccc(Cl)cc1I` [compound #124, (2s)-2-[(4-Chloro-2-iodo-benzoyl)-(3,5-dibromo-thiophen-2-ylmethyl)-amino]-3-phenyl-propionic acid], for which the IC50 is below 5 µM.

On to `O=C(O)c1cccc(-c2ccc(CN(C(=O)c3ccc(Cl)cc3Cl)[C@@H](Cc3ccccc3)C(=O)O)s2)c1` [compound #125, (2s)-3-(5-{[(1-Carboxy-2-phenyl-ethyl)-(2,4-dichloro-benzoyl)-amino]-methyl}-thiophen-2-yl)-benzoic acid], for which the half-inhibitory concentration (IC50) is below 5 µM.

As to `O=C(O)[C@H](Cc1ccccc1)N(Cc1ccc(-c2ccc(Cl)s2)o1)C(=O)c1ccc(Cl)cc1Cl` [compound #126, (2s)-2-[[5-(5-Chloro-thiophen-2-yl)-furan-2-ylmethyl]-(2,4-dichloro-benzoyl)-amino]-3-phenyl-propionic acid], the IC50 is below 5 µM.

With `O=C(O)[C@H](Cc1ccccc1)N(Cc1ccc(-c2cccs2)s1)C(=O)c1ccc(Cl)cc1Cl` [compound #127, (2s)-2-[[2,2′]Bithiophenyl-5-ylmethyl-(2,4-dichloro-benzoyl)-amino]-3-phenyl-propionic acid], the IC50 is below 5 µM.

For `O=C(O)[C@H](Cc1ccccc1)N(Cc1ccc(-c2ccc(Cl)s2)s1)C(=O)c1ccc(Cl)cc1Cl` [compound #128, (2s)-2-[(5′-Chloro-[2,2′]bithiophenyl-5-ylmethyl)-(2,4-dichloro-benzoyl)-amino]-3-phenyl-propionic acid], the IC50 was below 5 µM.

`O=C(O)[C@H](Cc1ccccc1)N(Cc1cc(-c2cc(F)cc(F)c2)cs1)C(=O)c1ccc(Cl)cc1Cl` [compound #129, (2s)-2-{(2,4-Dichloro-benzoyl)-[4-(3,5-difluoro-phenyl)-thiophen-2-ylmethyl]-amino}-3-phenyl-propionic acid]: the IC50 is below 5 µM.

As for `O=C(O)[C@H](Cc1ccccc1)N(Cc1cc(-c2cccc(F)c2)cs1)C(=O)c1ccc(Cl)cc1Cl` [compound #130, (2s)-2-{(2,4-Dichloro-benzoyl)-[4-(3-fluoro-phenyl)-thiophen-2-ylmethyl]-amino}-3-phenyl-propionic acid], the concentration for half-maximal inhibition (IC50) is below 5 µM.

Turning to `O=C(O)[C@H](Cc1ccccc1)N(Cc1ccc(-c2cccc(C(F)(F)F)c2)o1)C(=O)c1ccc(Cl)cc1I` [compound #131, (2s)-2-{(4-Chloro-2-iodo-benzoyl)-[5-(3-trifluoromethyl-phenyl)-furan-2-ylmethyl]-amino}-3-phenyl-propionic acid], the 50% inhibitory concentration (IC50) is below 5 µM.

Turning to `O=C(O)[C@H](Cc1ccccc1)N(Cc1cc(-c2ccc(Cl)s2)cs1)C(=O)c1ccc(Cl)cc1Cl` [compound #133, (2s)-2-[(5-Chloro-[2,3′]bithiophenyl-5′-ylmethyl)-(2,4-dichloro-benzoyl)-amino]-3-phenyl-propionic acid], the IC50 was below 5 µM.

For the molecule `COc1ccc(-c2ccc(CN(C(=O)c3ccc(Cl)cc3Cl)[C@@H](Cc3ccccc3)C(=O)O)o2)cc1` [compound #134, (2s)-2-{(2,4-Dichloro-benzoyl)-[5-(4-methoxy-phenyl)-furan-2-ylmethyl]-amino}-3-phenyl-propionic acid], the IC50 was below 5 µM.

As to `COc1ccc(-c2ccc(CN(C(=O)c3ccc(Cl)cc3Cl)[C@@H](Cc3ccccc3)C(=O)O)s2)cc1` [compound #135, (2s)-2-{(2,4-Dichloro-benzoyl)-[5-(4-methoxy-phenyl)-thiophen-2-ylmethyl]-amino}-3-phenyl-propionic acid], the IC50 was below 5 µM.

For `COc1ccc(-c2csc(CN(C(=O)c3ccc(Cl)cc3Cl)[C@@H](Cc3ccccc3)C(=O)O)c2)cc1` [compound #136, (2s)-2-{(2,4-Dichloro-benzoyl)-[4-(4-methoxy-phenyl)-thiophen-2-ylmethyl]-amino}-3-phenyl-propionic acid], the 50% inhibitory concentration (IC50) is below 5 µM.

On to `O=C(O)[C@H](Cc1ccccc1)N(Cc1ccc(-c2ccncc2)o1)C(=O)c1ccc(Cl)cc1Cl` [compound #137, (2s)-2-[(2,4-Dichloro-benzoyl)-(5-pyridin-4-yl-furan-2-ylmethyl)-amino]-3-phenyl-propionic acid], for which the IC50 was below 5 µM.

As for `O=C(O)[C@H](Cc1ccccc1)N(Cc1ccc(-c2ccncc2)s1)C(=O)c1ccc(Cl)cc1Cl` [compound #138, (2s)-2-[(2,4-Dichloro-benzoyl)-(5-pyridin-4-yl-thiophen-2-ylmethyl)-amino]-3-phenyl-propionic acid], the IC50 was below 5 µM.

Regarding `O=C(O)[C@H](Cc1ccccc1)N(Cc1cc(-c2ccncc2)cs1)C(=O)c1ccc(Cl)cc1Cl` [compound #139, (2s)-2-[(2,4-Dichloro-benzoyl)-(4-pyridin-4-yl-thiophen-2-ylmethyl)-amino]-3-phenyl-propionic acid], the IC50 is below 5 µM.

A further experiment addresses recombinant HCV NS5B (Hepatitis C virus genotype 1b, UniProt P26663). As to the kind of experiment: biochemical. The note with it: flashplate, polyrA/biotinylated-oligo dT, 100 nM NS5B, 2 hrs at room temperature; read-out: RNA pol Assay 2 IC50 (μm). Here is the method: In vitro HCV RdRp Flashplate Scintillation Proximity Assay (Strep-Flash Assay) Used to Evaluate Analogues:
In brief, a 400 ng/μl polyrA solution (Amersham Pharmacia Biotech) was mixed volume-to-volume with 5′ biotin-oligo dT12 at 20 pmol/μl. The template and primers were denatured at 95 C for 5 minutes then incubated at 37 C for 10 minutes. Annealed template-primers were subsequently diluted in a Tris-HCl containing buffer and allowed to bind to streptavidin-coated flashplates overnight.
Turning to `CC(c1cccc(C#N)c1)N(C(=O)c1ccc(Cl)cc1Cl)[C@@H](Cc1ccccc1)C(=O)O` (stereo in doubt) [Compound #205, 2-[[1-(3-CYANO-PHENYL)-ETHYL]-(2,4-DICHLORO-BENZOYL)-AMINO]-3PHENYL-PROPIONIC ACID], the IC50 is 5 to 20 µM.

For `O=C(O)C(Cc1ccccc1)N(Cc1cc(Cl)cc(Cl)c1)C(=O)c1ccc(Cl)cc1Cl` (stereo in doubt) [compound #142, (2s)-2-[(2,4-Dichloro-benzoyl)-(3,5-dichloro-benzyl)-amino]-3-phenyl-propionic acid], the 50% inhibitory concentration (IC50) was below 5 µM.

For the molecule `O=C(O)C(Cc1ccccc1)N(Cc1ccsc1)C(=O)c1ccc(Cl)cc1Cl` (stereo in doubt) [compound #143, (2s)-2-[(2,4-Dichloro-benzoyl)-thiophen-3-ylmethyl-amino]-3-phenyl-propionic acid], the concentration for half-maximal inhibition (IC50) is below 5 µM.

With `O=C(O)[C@H](Cc1ccccc1)N(C[C@H]1CCCN1)C(=O)c1ccc(Cl)cc1Cl` (stereo in doubt) [compound #168, d-2-[(2,4-Dichloro-benzoyl)-pyrrolidin-2-ylmethyl-amino]-3-phenyl-propionic acid], the half-inhibitory concentration (IC50) lay within 5 to 20 µM.

As to `CN(C(=O)c1ccc(Cl)cc1Cl)[C@H](Cc1ccc(Br)s1)C(=O)O` (stereo in doubt) [compound #169, 3-(5-Bromo-thiophen-2-yl)-2-[(2,4-dichloro-benzoyl)-methyl-amino]-propionic acid], the IC50 is below 5 µM.

In the case of `CN(C(=O)c1ccc(Cl)cc1Cl)[C@H](Cc1ccc(-c2cc3ccccc3o2)cc1)C(=O)O` [Compound #29, 3-(4-Benzofuran-2-yl-phenyl)-2-[(2,4-dichloro-benzoyl)-methyl-amino]-propionic acid], the IC50 was in the range of 5 to 20 µM.

`O=C(O)[C@H](Cc1ccccc1)N(Cc1cccc([N+](=O)[O-])c1)C(=O)c1ccc(Cl)cc1Cl` [Compound #53, (2S)-2-[(2,4-Dichloro-benzoyl)-(3-nitro-benzyl)-amino]-3-phenyl-propionic acid]: the IC50 was below 5 µM.

Regarding `COC(=O)c1cccc(CN(C(=O)c2ccc(Cl)cc2Cl)[C@@H](Cc2ccccc2)C(=O)O)c1` [Compound #117, 3-{[(1-Carboxy-2-phenyl-ethyl)-(2,4-dichloro-benzoyl)-amino]-methyl}-benzoic acid methyl ester], the IC50 is below 5 µM.

Turning to `N#Cc1cccc(-c2ccc(CN(C(=O)c3ccc(Cl)cc3Cl)[C@@H](Cc3ccccc3)C(=O)O)o2)c1` [Compound #119, 2-[[5-(3-Cyano-phenyl)-furan-2-ylmethyl]-(2,4-dichloro-benzoyl)-amino]-3-phenyl-propionic acid], the IC50 was below 5 µM.

Take `Cc1ccc(C(=O)N(Cc2cc(-c3ccc(F)c(Cl)c3)cs2)[C@@H](Cc2ccccc2)C(=O)O)c(C)c1` [Compound #192, 2-[[4-(3-Chloro-4-fluoro-phenyl)-thiophen-2-ylmethyl]-(2,4-dimethyl-benzoyl)-amino]-3-phenyl-propionic acid]: the half-maximal inhibitory concentration (IC50) was below 5 µM.

Regarding `O=C(O)c1cccc(CN(C(=O)c2ccc(Cl)cc2Cl)[C@@H](Cc2ccccc2)C(=O)O)c1` [Compound #193, 3-{[(1-Carboxy-2-phenyl-ethyl)-(2,4-dichloro-benzoyl)-amino]-methyl}-benzoic acid], the 50% inhibitory concentration (IC50) was below 5 µM.

Take `Nc1cccc(CN(C(=O)c2ccc(Cl)cc2Cl)[C@@H](Cc2ccccc2)C(=O)O)c1` [Compound #194, 2-[(3-Amino-benzyl)-(2,4-dichloro-benzoyl)-amino]-3-phenyl-propionic acid]: the concentration for half-maximal inhibition (IC50) was in the range of 5 to 20 µM.

As for `O=C(O)[C@@H](Cc1ccccc1)N(Cc1ccccc1)C(=O)c1ccc(Cl)cc1Cl` [Compound #199, 2-[Benzyl-(2,4-dichloro-benzoyl)-amino]-3-phenyl-propionic acid], the concentration for half-maximal inhibition (IC50) is 5 to 20 µM.

Take `O=C(O)C(Cc1ccccc1)N(Cc1cccc(-c2nn[nH]n2)c1)C(=O)c1ccc(Cl)cc1Cl` (stereo not shown) [Compound #200, 2-{(2,4-DICHLORO-BENZOYL)-[3-(2H-TETRAZOL-5-YL)-BENZYL]-AMINO}-3-PHENYL-PROPIONIC ACID]: the IC50 is below 5 µM.

Turning to `O=C(O)[C@H](Cc1ccccc1)N(Cc1ccccc1[N+](=O)[O-])C(=O)c1ccc(Cl)cc1Cl` [Compound #201, 2-[(2,4-DICHLORO-BENZOYL)-(2-NITRO-BENZYL)-AMINO]-3-PHENYL-PROPIONIC ACID], the IC50 was in the range of 5 to 20 µM.
